# Assay results from patent US10072003B2, “Tetrahydronaphthyridine derivatives as mGluR2-negative allosteric modulators, compositions, and their use” (Merck Sharp & Dohme Corp., priority 2014, dated 2018).
# Biological target: recombinant human mGluR2 (Homo sapiens (Human), UniProt Q14416)
# Assay: FLIPR Ca2+ mobilization antagonist assay in CHO dhfr- cells expressing human mGluR2 and Gα16
# Type: cell-based
# Details: antagonist response after addition of 2,500 nM glutamate, Fluo-4 AM, FLIPR384
# Procedure: Antagonist constants are determined as follows. The compounds of the invention were tested in a fluorescence laser imaging plate reader based assay. This assay is a common functional assay to monitor Ca2+ mobilization in whole cells expressing recombinant receptor coupled with a promiscuous G-protein. CHO dhfr-cells stably expressing recombinant human mGluR2 and Gα16 loaded with Fluo-4 AM (Invitrogen, Carlsbad Calif.) were treated with various concentrations of antagonists of compounds and the Ca2+ response was monitored on a FLIPR384 (Molecular Devices, Sunnydale Calif.) for agonist activity. Then 2,500 nM glutamate was added and the antagonist response was monitored. The maximum calcium response at each concentration of compound for agonist or antagonist were plotted as dose responses and the curves were fitted with a four parameter logistic equation giving IC50 and Hill coefficient using the iterative non linear curve fitting software ADA (Merck & Co). Data in the following table represent activities in the antagonist assay.
# Sequence of recombinant human mGluR2 (Q14416 19-872): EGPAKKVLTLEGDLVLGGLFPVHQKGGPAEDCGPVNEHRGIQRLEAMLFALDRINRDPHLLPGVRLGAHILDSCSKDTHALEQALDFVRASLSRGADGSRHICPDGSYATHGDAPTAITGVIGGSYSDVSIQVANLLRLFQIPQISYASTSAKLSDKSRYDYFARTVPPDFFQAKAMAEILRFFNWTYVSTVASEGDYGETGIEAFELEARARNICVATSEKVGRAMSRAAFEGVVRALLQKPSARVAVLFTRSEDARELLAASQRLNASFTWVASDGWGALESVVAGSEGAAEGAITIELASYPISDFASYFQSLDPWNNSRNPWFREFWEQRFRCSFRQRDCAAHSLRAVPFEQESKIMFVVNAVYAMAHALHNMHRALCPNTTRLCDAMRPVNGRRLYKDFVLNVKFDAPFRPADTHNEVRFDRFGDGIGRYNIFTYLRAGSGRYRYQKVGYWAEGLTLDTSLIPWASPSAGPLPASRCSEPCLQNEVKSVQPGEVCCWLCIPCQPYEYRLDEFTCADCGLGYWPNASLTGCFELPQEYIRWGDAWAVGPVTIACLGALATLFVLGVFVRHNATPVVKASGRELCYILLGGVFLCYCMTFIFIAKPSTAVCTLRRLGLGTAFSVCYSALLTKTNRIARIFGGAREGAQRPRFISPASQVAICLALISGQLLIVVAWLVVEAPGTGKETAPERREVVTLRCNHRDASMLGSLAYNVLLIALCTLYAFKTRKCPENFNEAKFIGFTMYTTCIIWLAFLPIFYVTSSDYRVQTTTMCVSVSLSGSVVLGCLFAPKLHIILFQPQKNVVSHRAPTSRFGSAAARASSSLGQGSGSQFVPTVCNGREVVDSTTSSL
row,Compound,IC50
1,"NC(=O)c1cc(-c2ccc(F)cc2)c2c(n1)CN(C(c1cccnc1)C(F)(F)F)CC2 (racemic) [Example 3-1A, (S) and (R)-4-(4-fluorophenyl)-7-(2,2,2-trifluoro-1-(pyridin-3-yl)ethyl)-5,6,7,8-tetrahydro-1,7-naphthyridine-2-carboxamide]",21.2 nM
2,"NC(=O)c1cc(-c2ccc(F)cc2F)c2c(n1)CN(CC1CCOC(C3CCC3)C1)CC2 (single isomer, unassigned) [Example 1-14, 7-(((2S,4R) or (2R,4S)-2-cyclobutyltetrahydro-2H-pyran-4-yl)methyl)-4-(2,4-difluorophenyl)-5,6,7,8-tetrahydro-1,7-naphthyridine-2-carboxamide]",40.3 nM
3,"NC(=O)c1cc(N2CCCC(F)C2)c2c(n1)CN(Cc1ccnc(C(F)(F)F)c1)CC2 (single isomer, unassigned) [Example 5-6A, (S) or (R)-4-(3-fluoropiperidin-1-yl)-7-((2-(trifluoromethyl)pyridin-4-yl)methyl)-5,6,7,8-tetrahydro-1,7-naphthyridine-2-carboxamide]",21.4 nM
4,"CC1(C)CC(CN2CCc3c(-c4ccc(F)cc4F)cc(C(N)=O)nc3C2)CCO1 (single isomer, unassigned) [Example 1-11A, (R) or (S)-4-(2,4-difluorophenyl)-7-[(2,2-dimethyltetrahydro-2H-pyran-4-yl)methyl]-5,6,7,8-tetrahydro-1,7-naphthyridine-2-carboxamide]",30.1 nM
5,"NC(=O)c1cc(-c2cc(C3CC3)ns2)c2c(n1)CN(Cc1ccnc(C3CC3)c1)CC2 [Example 2-24, 4-(3-cyclopropylisothiazol-5-yl)-7-[(2-cyclopropylpyridin-4-yl)methyl]-5,6,7,8-tetrahydro-1,7-naphthyridine-2-carboxamide]",18.2 nM
6,"NC(=O)c1cc(-c2ccc(F)cc2F)c2c(n1)CN(CC(O)c1ccccc1)CC2 (single isomer, unassigned) [Example 8-3B, (R) or (S)-4-(2,4-difluorophenyl)-7-[(2R or 2S)-2-hydroxy-2-phenylethyl]-5,6,7,8-tetrahydro-1,7-naphthyridine-2-carboxamide]",12.7 nM
7,"NC(=O)c1cc(-c2ccccc2F)c2c(n1)CN(Cc1ccnc(C(F)(F)F)n1)CC2 [Example 11-8, 4-(2-fluorophenyl)-7-{[2-(trifluoromethyl)pyrimidin-4-yl]methyl}-5,6,7,8-tetrahydro-1,7-naphthyridine-2-carboxamide]",11.8 nM
8,"Cn1nccc1CN1CCc2c(-c3ccc(Cl)cc3F)cc(C(N)=O)nc2C1 [Example 1-8, 4-(4-chloro-2-fluorophenyl)-7-[(1-methyl-1H-pyrazol-5-yl)methyl]-5,6,7,8-tetrahydro-1,7-naphthyridine-2-carboxamide]",8.7 nM
9,"NC(=O)c1cc(-c2ccc(Cl)cc2F)c2c(n1)CN(Cc1cc(C(F)(F)F)ncn1)CC2 [Example 11-12, 4-(4-chloro-2-fluorophenyl)-7-{[6-(trifluoromethyl)pyrimidin-4-yl]methyl}-5,6,7,8-tetrahydro-1,7-naphthyridine-2-carboxamide]",10 nM
10,"COc1cc(CN2CCc3c(N4CCC(F)(F)CC4)cc(C(N)=O)nc3C2)ccn1 [Example 5-3, 4-(4,4-difluoropiperidin-1-yl)-7-[(2-methoxypyridin-4-yl)methyl]-5,6,7,8-tetrahydro-1,7-naphthyridine-2-carboxamide]",41 nM
11,"NC(=O)c1cc(-c2ccc(Cl)cn2)c2c(n1)CN(Cc1ccnc(C(F)(F)F)c1)CC2 [Example 6-1, 4-(5-chloropyridin-2-yl)-7-((2-(trifluoromethyl)pyridin-4-yl)methyl)-5,6,7,8-tetrahydro-1,7-naphthyridine-2-carboxamide]",11.7 nM
12,"NC(=O)c1cc(-n2cc(C(F)(F)F)cn2)c2c(n1)CN(Cc1ccnc(C(F)(F)F)c1)CC2 [Example 5-10, 4-[4-(trifluoromethyl)-1H-pyrazol-1-yl]-7-{[2-(trifluoromethyl)pyridin-4-yl]methyl}-5,6,7,8-tetrahydro-1,7-naphthyridine-2-carboxamide]",32 nM
13,"COc1ccc(-c2cc(C(N)=O)nc3c2CCN(Cc2ccnc(OC)c2)C3)c(F)c1 [Example 13-2, 4-(2-fluoro-4-methoxyphenyl)-7-[(2-methoxypyridin-4-yl)methyl]-5,6,7,8-tetrahydro-1,7-naphthyridine-2-carboxamide]",6.6 nM
14,"NC(=O)c1cc(-c2ccc(Cl)cn2)c2c(n1)CN(Cc1ccnn1C(F)F)CC2 [Example 2-22, 4-(5-chloropyridin-2-yl)-7-{[1-(difluoromethyl)-1H-pyrazol-5-yl]methyl}-5,6,7,8-tetrahydro-1,7-naphthyridine-2-carboxamide]",19.4 nM
15,"NC(=O)c1cc(-c2cc(C3CC3)ns2)c2c(n1)CN(Cc1ccnc(OC(F)F)c1)CC2 [Example 2-27, 4-(3-cyclopropylisothiazol-5-yl)-7-{[2-(difluoromethoxy)pyridin-4-yl]methyl}-5,6,7,8-tetrahydro-1,7-naphthyridine-2-carboxamide]",23 nM
16,"NC(=O)c1cc(-c2c(F)cc(F)cc2F)c2c(n1)CN(Cc1cc(C(F)(F)F)ncn1)CC2 [Example 11-11, 7-{[6-(trifluoromethyl)pyrimidin-4-yl]methyl}-4-(2,4,6-trifluorophenyl)-5,6,7,8-tetrahydro-1,7-naphthyridine-2-carboxamide]",26.1 nM
17,"CC1(C)CC(O)(CN2CCc3c(-c4ccc(F)cc4F)cc(C(N)=O)nc3C2)CCO1 (single isomer, unassigned) [Example 14-2A]",31.7 nM
18,"CC1(C)CC(CN2CCc3c(-c4ccc(Cl)cc4F)cc(C(N)=O)nc3C2)CCO1 (single isomer, unassigned) [Example 1-5B, (S) or (R)-4-(4-chloro-2-fluorophenyl)-7-((2,2-dimethyltetrahydro-2H-pyran-4-yl)methyl)-5,6,7,8-tetrahydro-1,7-naphthyridine-2-carboxamide]",7.5 nM
19,"NC(=O)c1cc(-c2c(F)cccc2F)c2c(n1)CN(Cc1ccnc(C(F)(F)F)n1)CC2 [Example 11-1, 4-(2,6-Difluorophenyl)-7-((2-(trifluoromethyl)pyrimidin-4-yl)methyl)-5,6,7,8-tetrahydro-1,7-naphthyridine-2-carboxamide]",25.8 nM
20,"COC1CCN(c2cc(C(N)=O)nc3c2CCN(Cc2ccnn2C(C)C)C3C)CC1 (single isomer, unassigned) [Example 1-22, (S) or (R)-4-(4-methoxypiperidin-1-yl)-8-methyl-7-{[1-(1-methylethyl)-1H-pyrazol-5-yl]methyl}-5,6,7,8-tetrahydro-1,7-naphthyridine-2-carboxamide]",50.6 nM
21,"CC(c1ccnc(C(F)(F)F)c1)N1CCc2c(-c3cnn(C(F)F)c3)cc(C(N)=O)nc2C1 (single isomer, unassigned) [Example 7-3B, (R) or (S)-4-[1-(difluoromethyl)-1H-pyrazol-4-yl]-7-{(1S)-1-[2-(trifluoromethyl)pyridin-4-yl]ethyl}-5,6,7,8-tetrahydro-1,7-naphthyridine-2-carboxamide]",21.2 nM
22,"NC(=O)c1cc(N2CCC(F)(F)CC2)c2c(n1)CN(Cc1ccnc(C(F)(F)F)n1)CC2 [Example 12-1, 4-(4,4-difluoropiperidin-1-yl)-7-((2-(trifluoromethyl)pyrimidin-4-yl)methyl)-5,6,7,8-tetrahydro-1,7-naphthyridine-2-carboxamide]",40.9 nM
23,"NC(=O)c1cc(-c2ccc(F)cc2Cl)c2c(n1)CN(Cc1ccnc(OC(F)F)c1)CC2 [Example 2-11, 4-(2-chloro-4-fluorophenyl)-7-{[2-(difluoromethoxy)pyridin-4-yl]methyl}-5,6,7,8-tetrahydro-1,7-naphthyridine-2-carboxamide]",10.4 nM
24,"CC(C)(C)[C@@H]1C[C@H](CN2CCc3c(-c4ccc(F)cc4)cc(C(N)=O)nc3C2)CCO1 [Example 1-3A, 7-(((2S,4R)-2-(tert-butyl)tetrahydro-2H-pyran-4-yl)methyl)-4-(4-fluorophenyl)-5,6,7,8-tetrahydro-1,7-naphthyridine-2-carboxamide]",132 nM
25,"NC(=O)c1cc(-c2ccc(F)cc2F)c2c(n1)CN(CC(O)c1ccccc1)CC2 (single isomer, unassigned) [Example 8-3A, (S) or (R)-4-(2,4-difluorophenyl)-7-[(2S or 2R)-2-hydroxy-2-phenylethyl]-5,6,7,8-tetrahydro-1,7-naphthyridine-2-carboxamide]",18.5 nM
26,"CC(C)c1noc(CN2CCc3c(-c4ccc(Cl)cc4F)cc(C(N)=O)nc3C2)n1 [Example 9-6, 4-(4-chloro-2-fluorophenyl)-7-{[3-(1-methylethyl)-1,2,4-oxadiazol-5-yl]methyl}-5,6,7,8-tetrahydro-1,7-naphthyridine-2-carboxamide]",8 nM
27,"NC(=O)c1cc(-c2cccc(C(F)(F)F)c2)c2c(n1)CN(Cc1ccnc(C(F)(F)F)c1)CC2 [Example 2-8, 4-[3-(trifluoromethyl)phenyl]-7-{[2-(trifluoromethyl)pyridin-4-yl]methyl}-5,6,7,8-tetrahydro-1,7-naphthyridine-2-carboxamide]",188 nM
28,"COc1nccc(CN2CCc3c(-c4ccc(Cl)cc4F)cc(C(N)=O)nc3C2)n1 [Example 9-3, 4-(4-chloro-2-fluorophenyl)-7-[(2-methoxypyrimidin-4-yl)methyl]-5,6,7,8-tetrahydro-1,7-naphthyridine-2-carboxamide]",14.2 nM
29,"NC(=O)c1cc(-c2ccccc2Cl)c2c(n1)CN(Cc1ccnc(C(F)(F)F)n1)CC2 [Example 11-4, 4-(2-chlorophenyl)-7-{[2-(trifluoromethyl)pyrimidin-4-yl]methyl}-5,6,7,8-tetrahydro-1,7-naphthyridine-2-carboxamide]",19.7 nM
